Results: US8192962B2, “Processes for detecting toxic substances” (Daikin Industries, Ltd., priority 2001, dated 2012)

Test system: Mitochondria-located protein genes
Test: DNA chip mRNA expression in yeast, mitochondria-located protein genes (Table 2)
Type: cell-based, Saccharomyces cerevisiae S288C
Settings: cells incubated two hours with the chemical substance
Method in brief: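 S. cerevisiae S288C grown at 25° C. in YPD to log phase, then exposed 2 h to a toxicant at a growth-inhibiting, non-lethal concentration; untreated cells as control. Poly(A) mRNA reverse-transcribed with Cy3-dUTP or Cy5-dUTP, hybridized >12 h at 65° C. to whole-genome yeast DNA chip; value = fluorescence ratio treated/untreated.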

Q: `S=C([S-])NCCNC(=S)[S-].[Zn+2]` [(11), zinc N,N′-ethylenebis(dithiocarbamate)] was tested. Which “The level of expressed mRNA in the presence of chemical substance/The level of expressed mRNA in the absence of chemical substance” value (yeast gene YJR121W) did it give?
A: 0.9

Q: And the “The level of expressed mRNA in the presence of chemical substance/The level of expressed mRNA in the absence of chemical substance” value (yeast gene YKL003C)?
A: 1.7

Q: What about the “The level of expressed mRNA in the presence of chemical substance/The level of expressed mRNA in the absence of chemical substance” value (yeast gene YKL016C) of the same compound?
A: 1.3

Q: And the “The level of expressed mRNA in the presence of chemical substance/The level of expressed mRNA in the absence of chemical substance” value (yeast gene YKL141W)?
A: 1.2

Q: What about the “The level of expressed mRNA in the presence of chemical substance/The level of expressed mRNA in the absence of chemical substance” value (yeast gene YKL142W) of the same compound?
A: 2.0

Q: What about the “The level of expressed mRNA in the presence of chemical substance/The level of expressed mRNA in the absence of chemical substance” value (yeast gene YKL148C) of the same compound?
A: 1.5

Q: And the “The level of expressed mRNA in the presence of chemical substance/The level of expressed mRNA in the absence of chemical substance” value (yeast gene YKL170W)?
A: 0.7

Q: What about the “The level of expressed mRNA in the presence of chemical substance/The level of expressed mRNA in the absence of chemical substance” value (yeast gene YKL194C) of the same compound?
A: 1.6

Q: What about the “The level of expressed mRNA in the presence of chemical substance/The level of expressed mRNA in the absence of chemical substance” value (yeast gene YKR066C) of the same compound?
A: 1.3

Q: What about the “The level of expressed mRNA in the presence of chemical substance/The level of expressed mRNA in the absence of chemical substance” value (yeast gene YLL041C) of the same compound?
A: 1.3

Q: What about the “The level of expressed mRNA in the presence of chemical substance/The level of expressed mRNA in the absence of chemical substance” value (yeast gene YLR038C) of the same compound?
A: 1.4

Q: What about the “The level of expressed mRNA in the presence of chemical substance/The level of expressed mRNA in the absence of chemical substance” value (yeast gene YLR259C) of the same compound?
A: 3.0

Q: And the “The level of expressed mRNA in the presence of chemical substance/The level of expressed mRNA in the absence of chemical substance” value (yeast gene YLR295C)?
A: 1.3

Q: What about the “The level of expressed mRNA in the presence of chemical substance/The level of expressed mRNA in the absence of chemical substance” value (yeast gene YLR304C) of the same compound?
A: 1.6

Q: And the “The level of expressed mRNA in the presence of chemical substance/The level of expressed mRNA in the absence of chemical substance” value (yeast gene YLR348C)?
A: 1.3

Q: What about the “The level of expressed mRNA in the presence of chemical substance/The level of expressed mRNA in the absence of chemical substance” value (yeast gene YLR395C) of the same compound?
A: 1.5

Q: What about the “The level of expressed mRNA in the presence of chemical substance/The level of expressed mRNA in the absence of chemical substance” value (yeast gene YML054C) of the same compound?
A: 1.4

Q: What about the “The level of expressed mRNA in the presence of chemical substance/The level of expressed mRNA in the absence of chemical substance” value (yeast gene YML120C) of the same compound?
A: 1.3

Q: What about the “The level of expressed mRNA in the presence of chemical substance/The level of expressed mRNA in the absence of chemical substance” value (yeast gene YML129C) of the same compound?
A: 1.2

Q: And the “The level of expressed mRNA in the presence of chemical substance/The level of expressed mRNA in the absence of chemical substance” value (yeast gene YMR023C)?
A: 0.8

Q: What about the “The level of expressed mRNA in the presence of chemical substance/The level of expressed mRNA in the absence of chemical substance” value (yeast gene YMR035W) of the same compound?
A: 1.5

Q: What about the “The level of expressed mRNA in the presence of chemical substance/The level of expressed mRNA in the absence of chemical substance” value (yeast gene YMR083W) of the same compound?
A: 1.6

Q: And the “The level of expressed mRNA in the presence of chemical substance/The level of expressed mRNA in the absence of chemical substance” value (yeast gene YMR089C)?
A: 1.3

Q: What about the “The level of expressed mRNA in the presence of chemical substance/The level of expressed mRNA in the absence of chemical substance” value (yeast gene YMR152W) of the same compound?
A: 1.2

Q: What about the “The level of expressed mRNA in the presence of chemical substance/The level of expressed mRNA in the absence of chemical substance” value (yeast gene YMR203W) of the same compound?
A: 2.3

Q: And the “The level of expressed mRNA in the presence of chemical substance/The level of expressed mRNA in the absence of chemical substance” value (yeast gene YMR267W)?
A: 1.0

Q: And the “The level of expressed mRNA in the presence of chemical substance/The level of expressed mRNA in the absence of chemical substance” value (yeast gene YNL055C)?
A: 1.9

Q: And the “The level of expressed mRNA in the presence of chemical substance/The level of expressed mRNA in the absence of chemical substance” value (yeast gene YNL071W)?
A: 1.6

Q: And the “The level of expressed mRNA in the presence of chemical substance/The level of expressed mRNA in the absence of chemical substance” value (yeast gene YNL073W)?
A: 1.1

Q: What about the “The level of expressed mRNA in the presence of chemical substance/The level of expressed mRNA in the absence of chemical substance” value (yeast gene YNL104C) of the same compound?
A: 2.1

Q: What about the “The level of expressed mRNA in the presence of chemical substance/The level of expressed mRNA in the absence of chemical substance” value (yeast gene YNL256W) of the same compound?
A: 0.6

Q: What about the “The level of expressed mRNA in the presence of chemical substance/The level of expressed mRNA in the absence of chemical substance” value (yeast gene YOL096C) of the same compound?
A: 1.2

Q: And the “The level of expressed mRNA in the presence of chemical substance/The level of expressed mRNA in the absence of chemical substance” value (yeast gene YOR020C)?
A: 2.5

Q: And the “The level of expressed mRNA in the presence of chemical substance/The level of expressed mRNA in the absence of chemical substance” value (yeast gene YOR037W)?
A: 1.2

Q: And the “The level of expressed mRNA in the presence of chemical substance/The level of expressed mRNA in the absence of chemical substance” value (yeast gene YOR100C)?
A: 1.4

Q: What about the “The level of expressed mRNA in the presence of chemical substance/The level of expressed mRNA in the absence of chemical substance” value (yeast gene YOR130C) of the same compound?
A: 0.6

Q: What about the “The level of expressed mRNA in the presence of chemical substance/The level of expressed mRNA in the absence of chemical substance” value (yeast gene YOR142W) of the same compound?
A: 1.5

Q: What about the “The level of expressed mRNA in the presence of chemical substance/The level of expressed mRNA in the absence of chemical substance” value (yeast gene YOR150W) of the same compound?
A: 1.0

Q: What about the “The level of expressed mRNA in the presence of chemical substance/The level of expressed mRNA in the absence of chemical substance” value (yeast gene YOR176W) of the same compound?
A: 1.4

Q: What about the “The level of expressed mRNA in the presence of chemical substance/The level of expressed mRNA in the absence of chemical substance” value (yeast gene YOR187W) of the same compound?
A: 1.4

Q: What about the “The level of expressed mRNA in the presence of chemical substance/The level of expressed mRNA in the absence of chemical substance” value (yeast gene YOR316C) of the same compound?
A: 2.4

Q: And the “The level of expressed mRNA in the presence of chemical substance/The level of expressed mRNA in the absence of chemical substance” value (yeast gene YPL040C)?
A: 0.9

Q: What about the “The level of expressed mRNA in the presence of chemical substance/The level of expressed mRNA in the absence of chemical substance” value (yeast gene YPL134C) of the same compound?
A: 1.7

Q: And the “The level of expressed mRNA in the presence of chemical substance/The level of expressed mRNA in the absence of chemical substance” value (yeast gene YPL135W)?
A: 1.3

Q: And the “The level of expressed mRNA in the presence of chemical substance/The level of expressed mRNA in the absence of chemical substance” value (yeast gene YPL215W)?
A: 1.1

Q: And the “The level of expressed mRNA in the presence of chemical substance/The level of expressed mRNA in the absence of chemical substance” value (yeast gene YPL262W)?
A: 1.4

Q: And the “The level of expressed mRNA in the presence of chemical substance/The level of expressed mRNA in the absence of chemical substance” value (yeast gene YPR024W)?
A: 0.9

Q: What about the “The level of expressed mRNA in the presence of chemical substance/The level of expressed mRNA in the absence of chemical substance” value (yeast gene YPR037C) of the same compound?
A: 0.9

Q: And the “The level of expressed mRNA in the presence of chemical substance/The level of expressed mRNA in the absence of chemical substance” value (yeast gene YPR047W)?
A: 1.1

Q: And the “The level of expressed mRNA in the presence of chemical substance/The level of expressed mRNA in the absence of chemical substance” value (yeast gene YPR134W)?
A: 1.3
